Source: patent US20070048372A1, “Method for treating non-inflammatory osteoarthritic pain” (SRZ Properties, Inc., priority 2005, published 2007)
Entries after “also recorded” stand apart in the source; their conditions may differ.

Legend:
[1] = system: rat formalin paw test (late phase); assay: Rat formalin paw test (late phase): number of flinches and licking time; format: in vivo, rat (Rj: Wistar (Han))
Procedure: Rats were given an intraplantar injection of 5% formalin (50 μl) into the posterior left paw. This treatment induces a recognizable flinching and licking response of the affected paw in control animals. The number of flinches was counted for 15 minutes, beginning 20 minutes after injection of formalin. The time spent licking the affected paw was also recorded.
Male Rj: Wistar (Han) rats, 10 per group, weighing 100-130 g at the beginning of the experiments were studied per group. The test was performed blind.
Lacosamide (20 mg/kg), gabapentin (50 and 100 mg/kg), combinations of lacosamide (20 mg/kg) with gabapentin (50 and 100 mg/kg), and vehicle were administered i.p. 10 minutes before injection of formalin.
Lacosamide (10 and 20 mg/kg), morphine (2 and 4 mg/kg), combinations of lacosamide (10 and 20 mg/kg) with morphine (2 and 4 mg/kg), and vehicle were administered i.p. 10 minutes before injection of formalin.
Lacosamide (10 mg/kg), duloxetine (8 mg/kg), a combination of lacosamide (10 mg/kg) with duloxetine (8 mg/kg), and vehicle were administered i.p. 10 minutes before injection of formalin.
Lacosamide (10 and 20 mg/kg), memantine (4 and 8 mg/kg), combinations of lacosamide (10 and 20 mg/kg) with memantine (4 and 8 mg/kg), and vehicle were administered i.p. 10 minutes before injection of formalin.
Lacosamide (10 and 20 mg/kg), naproxen (8 and 16 mg/kg), combinations of lacosamide (10 and 20 mg/kg) with […] (8 and 16 mg/kg), and vehicle were administered i.p. 10 minutes before injection of formalin. Morphine (8 mg/kg) was included as a comparative treatment.

[2] = system: muscle pressure hyperalgesia induced by TNF; assay: TNF-induced muscle pressure hyperalgesia (Randall-Selitto, withdrawal threshold to muscle pressure); format: in vivo, rat (Sprague Dawley)
Procedure: (§1) Adult male Sprague Dawley rats with a body weight of 250 g to 300 g were used (supplier: Charles River, Sulzfeld, Germany). Animals were group-housed (3 animals per cage) and maintained in a room with controlled temperature (21-22° C.) and a reversed light-dark cycle (12 h/12 h) with food and water available ad libitum. All experiments were approved by the Bavarian State animal experimentation committee and carried out in accordance with its regulations.
(§2) Recombinant rat tumor necrosis factor alpha (herein referred to as TNF) was obtained from R&D Systems, Minneapolis, Minn., U.S.A. TNF was diluted in 0.9% NaCl and used in a concentration of 1 μg in 50 μl. Injections were performed in short halothane narcosis with a 30 g needle bilaterally into the gastrocnemius or into the biceps brachii muscle. All rats were used to the behavioral tests before injections and baseline values were recorded over three test days.
Mechanical withdrawal thresholds to muscle pressure were measured with an analgesimeter (Ugo Basile, Comerio, Italy). The rat was allowed to crawl into a sock which helps the rat to relax. The hind limbs were positioned such that an increasing pressure could be applied onto the gastrocnemius muscle (maximum 250 g). The pressure needed to elicit withdrawal was recorded. Means of 3 trials for each hind limb were calculated (interstimulus interval of >30 sec). Only animals with a significant TNF effect were included for further analysis.
Rats were injected with TNF into the gastrocnemius muscle at 2 pm. Eighteen hours later, rats were tested for pressure hyperalgesia pre- and post-administration of the test drug. Rats were tested for pressure hyperalgesia 30 to 60 minutes after drug administration.
(§3) The rats, initially 10 per group, were treated with either 3, 10 or 30 mg/kg lacosamide, 2 mg/kg metamizol, 30 or 100 mg/kg pregabalin, 100 mg/kg gabapentin, or the NaCl vehicle, i.p. (intraperitoneally). Volume of i.p. injections was 0.5 ml. A pilot study was performed to confirm that i.m. (intramuscular) injection of 1 μg TNF into the gastrocnemius muscle was sufficient to induce pressure hyperalgesia.
(§4) Data are shown in graphs displaying means and standard errors of the means (SEM). Pre- and post-treatment data were compared using ANOVA (analysis of variance) and a Tukey post hoc test. Means of treatment groups were compared using a one-way ANOVA and Dunnett's post hoc test. Maximal possible effects (MPE) were calculated for all types of treatment.

[3] = system: biceps muscle grip strength after TNF-induced muscle pain; assay: Biceps muscle grip strength after TNF-induced muscle pain; format: in vivo, rat (Sprague Dawley); settings: 100 mg/kg i.p.
Procedure: as §1, §2
Grip strength of the forelimbs was tested with a digital grip force meter (DFIS series, Chatillon, Greensboro, NC, U.S.A.). The rat was positioned to grab the grid with the forelimbs and was gently pulled so that the grip strength could be recorded. Means of three trials were calculated. The effect of the TNF treatment was calculated for each animal separately and only animals with a significant TNF effect were included for further analysis.
Rats were injected with TNF into the biceps brachii muscle at 8 am. Six hours later, grip strength of the forelimbs was tested with a digital grip force meter. Test drug was administered, and grip strength was again tested after 30 to 60 minutes.
as §3, §4

[4] = system: monosodium iodoacetate-induced tactile allodynia; assay: Monosodium iodoacetate-induced tactile allodynia (von Frey filaments); format: in vivo, rat (Wistar); settings: 3 mg/kg s.c., 60 minutes before test
[5] = system: monosodium iodoacetate-induced mechanical hyperalgesia; assay: Monosodium iodoacetate-induced mechanical hyperalgesia (Randall-Selitto paw pressure); format: in vivo, rat (Wistar); settings: 3 mg/kg s.c.
[6] = Example 3, 100 mg/kg i.p. alone
[7] = Example 4, 2 and 4 mg/kg i.p. alone, did not reach statistical significance

CNCC[C@H](Oc1cccc2ccccc12)c1cccs1 [Duloxetine]
Licking time % change (a) compared with vehicle control ([1]; Example 5, 8 mg/kg i.p. alone): −26% (a)
Licking time (seconds) mean ± SEM ([1]; Example 5, 8 mg/kg i.p. alone): 195.5 ± 45.0 NS (a) seconds
No. of flinches % change (a) compared with vehicle control ([1]; Example 5, 8 mg/kg i.p. alone): −1% (a)
No. of flinches mean ± SEM ([1]; Example 5, 8 mg/kg i.p. alone): 149.6 ± 27.3 NS (a)
effects on the number of flinches and the time spent licking ([1]; Example 5, 8 mg/kg i.p. alone): had no clear effects

NCC1(CC(=O)O)CCCCC1 [Gabapentin]
MPE (maximal possible effect) on muscle pressure hyperalgesia, compared with vehicle ([2]; 100 mg/kg i.p.): significantly different from vehicle
reversal of muscular mechanical hyperalgesia (withdrawal threshold to muscle pressure) ([2]; 100 mg/kg i.p., 18 h after TNF i.m., 30 to 60 minutes after drug): significant reversal
full reversal of the muscle hyperalgesia ([2]; doses tested: pregabalin 30 and 100 mg/kg, gabapentin 100 mg/kg i.p.): Neither pregabalin nor gabapentin led to a full reversal
Licking time % change (a) compared with vehicle control ([1]; Example 3, 50 mg/kg i.p. alone): −28% (a)
Licking time (seconds) mean ± SEM ([1]; Example 3, 50 mg/kg i.p. alone): 161.0 ± 27.3 NS (a) seconds
No. of flinches % change (a) compared with vehicle control ([1]; Example 3, 50 mg/kg i.p. alone): −24% (a)
No. of flinches mean ± SEM ([1]; Example 3, 50 mg/kg i.p. alone): 97.4 ± 23.8 NS (a)
decrease of the number of flinches as compared with vehicle controls ([1]; Example 3, 50 mg/kg i.p. alone): 24%
decrease of the time spent licking as compared with vehicle controls ([1]; Example 3, 50 mg/kg i.p. alone): 28%
Licking time % change (a) compared with vehicle control [1, 6]: −60% (a)
Licking time (seconds) mean ± SEM [1, 6]: 90.0 ± 22.5 (a) seconds
No. of flinches % change (a) compared with vehicle control [1, 6]: −31% (a)
No. of flinches mean ± SEM [1, 6]: 88.1 ± 19.4 NS (a)
decrease of the number of flinches as compared with vehicle controls [1, 6]: 31%
decrease of the time spent licking as compared with vehicle controls [1, 6]: 60%
MPE (maximal possible effect) on biceps muscle grip strength, compared with vehicle [3]: significantly different from vehicle
reversal of TNF-induced reduction of grip strength ([3]; 6 h after TNF i.m., 30 to 60 minutes after drug): significant reversal; also recorded: improved grip strength

CC12CC3CC(C)(C1)CC(N)(C3)C2 [Memantine]
Licking time % change (a) compared with vehicle control ([1]; Example 6, 4 mg/kg i.p. alone): +25% (a)
Licking time (seconds) mean ± SEM ([1]; Example 6, 4 mg/kg i.p. alone): 219.9 ± 21.8 NS (a) seconds
No. of flinches % change (a) compared with vehicle control ([1]; Example 6, 4 mg/kg i.p. alone): −3% (a)
No. of flinches mean ± SEM ([1]; Example 6, 4 mg/kg i.p. alone): 161.4 ± 26.3 NS (a)
increase of the time spent licking as compared with vehicle controls ([1]; Example 6, 4 mg/kg i.p. alone): 25%
Licking time % change (a) compared with vehicle control ([1]; Example 6, 8 mg/kg i.p. alone): +35% (a)
Licking time (seconds) mean ± SEM ([1]; Example 6, 8 mg/kg i.p. alone): 237.3 ± 18.9 (a) seconds
No. of flinches % change (a) compared with vehicle control ([1]; Example 6, 8 mg/kg i.p. alone): −20% (a)
No. of flinches mean ± SEM ([1]; Example 6, 8 mg/kg i.p. alone): 132.3 ± 24.6 NS (a)
increase of the time spent licking as compared with vehicle controls ([1]; Example 6, 8 mg/kg i.p. alone): 35%
effect on the number of flinches as compared with vehicle controls ([1]; Example 6, 4 and 8 mg/kg i.p. alone): did not clearly affect

CN1CC[C@]23c4c5ccc(O)c4O[C@H]2[C@@H](O)C=C[C@H]3[C@H]1C5 [Morphine]
tactile allodynia of iodoacetate-treated rats (von Frey) ([4]; day 3): improved tactile allodynia
tactile allodynia of iodoacetate-treated rats (von Frey) ([4]; day 7): improved tactile allodynia
tactile allodynia of iodoacetate-treated rats (von Frey) ([4]; day 14): not on day 14
paw pressure withdrawal threshold compared to iodoacetate/vehicle treated animals (mechanical hyperalgesia) ([5]; day 3): increase in paw pressure withdrawal threshold
mechanical hyperalgesia (paw pressure withdrawal threshold) ([5]; day 7): reduced mechanical hyperalgesia
Licking time % change (a) compared with vehicle control ([1]; Example 4, 2 mg/kg i.p. alone): −1% (a)
Licking time (seconds) mean ± SEM ([1]; Example 4, 2 mg/kg i.p. alone): 289.3 ± 30.7 NS (a) seconds
No. of flinches % change (a) compared with vehicle control ([1]; Example 4, 2 mg/kg i.p. alone): −7% (a)
No. of flinches mean ± SEM ([1]; Example 4, 2 mg/kg i.p. alone): 139.5 ± 25.3 NS (a)
Licking time % change (a) compared with vehicle control ([1]; Example 4, 4 mg/kg i.p. alone): −20% (a)
Licking time (seconds) mean ± SEM ([1]; Example 4, 4 mg/kg i.p. alone): 234.9 ± 37.3 NS (a) seconds
No. of flinches % change (a) compared with vehicle control ([1]; Example 4, 4 mg/kg i.p. alone): −37% (a)
No. of flinches mean ± SEM ([1]; Example 4, 4 mg/kg i.p. alone): 94.3 ± 21.1 NS (a)
effect on the number of flinches as compared with vehicle controls [1, 7]: dose-dependently decreased
effect on the time spent licking as compared with vehicle controls [1, 7]: dose-dependently decreased
Licking time % change (a) compared with vehicle control ([1]; Example 7, 8 mg/kg i.p. alone): −100% (a)
Licking time (seconds) mean ± SEM ([1]; Example 7, 8 mg/kg i.p. alone): 0.0 ± 0.0 (a) seconds
No. of flinches % change (a) compared with vehicle control ([1]; Example 7, 8 mg/kg i.p. alone): −100% (a)
No. of flinches mean ± SEM ([1]; Example 7, 8 mg/kg i.p. alone): 0.2 ± 0.1 (a)
effect on flinching and the time spent licking as compared with vehicle controls ([1]; Example 7, 8 mg/kg i.p. alone): eliminated flinching and the time spent licking
